Data published in patent US9926305B2, “Salts” (Bayer Pharma Aktiengesellschaft, priority 2013, dated 2018).

Legend:
[1] = storage stability after processing via suspensions; format: physicochemical; details: crystalline salt, even after processing via suspensions
[2] = for some applications; suitability for use in formulations

SMILES | storage stability [1] | solubility [2]
Cn1c(=O)oc2cc(-n3cc(C(=O)[O-])c(=O)n([C@@H]4CCc5c4cccc5C(F)(F)F)c3=O)ccc21.[K+] [potassium salt, potassium salt of 1-(3-methyl-2-oxo-2,3-dihydro-1,3-benzoxazol-6-yl)-2,4-dioxo-3-[(1R)-4-(trifluoromethyl)-2,3-dihydro-1H-inden-1-yl]-1,2,3,4-tetrahydropyrimidine-5-carboxylic acid] | storage-stable | 
Cn1c(=O)oc2cc(-n3cc(C(=O)O)c(=O)n([C@@H]4CCc5c4cccc5C(F)(F)F)c3=O)ccc21 [free acid, 1-(3-Methyl-2-oxo-2,3-dihydro-1,3-benzoxazol-6-yl)-2,4-dioxo-3-[(1R)-4-(trifluoromethyl)-2,3-dihydro-1H-inden-1-yl]-1,2,3,4-tetrahydropyrimidine-5-carboxylic acid] |  | insufficient solubility
Cn1c(=O)oc2cc(-n3cc(C(=O)O)c(=O)n([C@@H]4CCc5c4cccc5C(F)(F)F)c3=O)ccc21.NCCCC[C@H](N)C(=O)O [L-lysine salt, L-lysine salt of 1-(3-methyl-2-oxo-2,3-dihydro-1,3-benzoxazol-6-yl)-2,4-dioxo-3-[(1R)-4-(trifluoromethyl)-2,3-dihydro-1H-inden-1-yl]-1,2,3,4-tetrahydropyrimidine-5-carboxylic acid] | storage-stable | 
Cn1c(=O)oc2cc(-n3cc(C(=O)[O-])c(=O)n([C@@H]4CCc5c4cccc5C(F)(F)F)c3=O)ccc21.[Na+] [sodium salt, sodium salt of 1-(3-methyl-2-oxo-2,3-dihydro-1,3-benzoxazol-6-yl)-2,4-dioxo-3-[(1R)-4-(trifluoromethyl)-2,3-dihydro-1H-inden-1-yl]-1,2,3,4-tetrahydropyrimidine-5-carboxylic acid] | storage-stable | 
